Data: patent US6593347B2, “Nitrosated and nitrosylated nonsteroidal antiinflammatory compounds, compositions and methods of use” (NitroMed, Inc., priority 1998, dated 2003)
Counter-ions that a name gives are not always drawn.

Experiments:
[1] = test system: carrageenan rat paw edema; test: rat paw edema test (antiinflammatory activity); assay type: in vivo; details: ratio of activity relative to the parent NSAID; oral gavage one hour prior to carrageenan; paw volume three hours later; male Sprague-Dawley rats
Method: The rat paw edema test was used to measure antiinflammatory activity. The rat paw edema test was performed according to the method of Winter et al, Proc. Soc. Exp. Biol. Med. 111: 544-547, 1962. Male Sprague-Dawley rats (250-275 g) were fasted overnight and dosed by oral gavage with vehicle or suspensions of compound one hour prior to the subplantar injection of 50 μl of 1% suspension of carrageenan. Three hours later, the paw volume was measured and compared with the initial volume measured immediately after carrageenan injection.

gastric lesion = test: rat gastric lesion test; assay type: in vivo, rats
Method: The rat gastric lesion test, described by Kitagawa et al, J. Phirmacol. Exp. Ther., 253:1133-1137 (1990), and Al-Ghamdi et al, J. Int. Med. Res., 19:2242 (1991), was used to evaluate the activity of compounds to produce gastric lesion. Male Sprague Dawley rats (Charles River Laboratories, Wilmington, Mass.) weighing 230-250 g were used for the experiments. The rats were housed with laboratory chow and water ad libitum prior to the study. The rats were fasted for 24 hours with free access to water and then dosed by oral gavage with vehicle or with test compounds given at a volume of 0.5 mL/100 g. Food was withheld for 18 hours after the initial dosing. Rats were euthanized by CO2 eighteen hours after dosing. The stomachs were dissected along the greater curvature, washed with a directed stream of 0.9% saline and pinned open on a sylgard based petri dish for examination of the hemorrhagic lesion. Gastric lesion score was expressed in mm and calculated by summning the length of each lesion.

[2] = test system: phenylbenzoquinone-induced writhing; test: phenylbenzoquinone-induced writhing test in mice (analgesic activity); assay type: in vivo; details: ratio of activity relative to the parent NSAID; oral gavage 1 hour prior to i.p. phenylbenzoquinone; male CD-1 mice
Method: The phenylbenzoquinone-induced writhing test in mice was used to measure analgesic activity. The ability of the compounds to inhibit phenylbenzoquinone-induced writhing in mice was measured using the method of Siegmund et al, Proc. Soc. Exp. Biol. Med. 95: 729-731, 1957. Male CD-1 mice (Charles River Laboratories, Wilmington, Mass.) weighing 20-25 g were fasted overnight. Vehicle or compounds were administered by oral gavage 1 hour prior to i.p. injection of 2 mg/kg of phenylbenzoquinone. Five minutes after the i.p. injection of phenylbenzoquinone, the number of writhes in a 5 minute period was counted.

[3] = ratio of activity relative to the parent NSAID, oral gavage, fasted rats, eighteen hours after dosing
[4] = 100 μmole/Kg, ratio of activity relative to the parent NSAID, oral gavage, fasted rats, eighteen hours after dosing

CN(CCCOC(=O)Cc1ccccc1Nc1c(Cl)cccc1Cl)CC1(SN=O)CCCCC1 [Example 4, 3-{Methyl{[(nitrosothio)cyclohexyl]methyl}amino)propyl 2-{2-[(2,6-dichlorophenyl)amino]phenyl}acetate]
Relative Activity Antiinflammation [1]: 1.3
Relative Activity Gastric Lesion (gastric lesion; rat, in vivo, po): 0.01
Relative Activity Analgesia [2]: 0.9

CN(Cc1ccc(OC(=O)Cc2ccccc2Nc2c(Cl)cccc2Cl)cc1)CC(C)(C)SN=O [Example 33, 4-({Methyl[2-methyl-2-(nitrosothio)propyl]amino}methyl)phenyl 2-{2-[(2,6-dichlorophenyl)amino]phenyl}acetate]
Relative Activity Antiinflammation [1]: 1
Relative Activity Analgesia [2]: 1

2-{2-[(2,6-Dichlorophenyl)amino]phenyl}-1-[2-(methyl{[(nitrosothio) cyclohexyl]methyl}amino)ethylthio]ethan-1-one [Example 32]
Relative Activity Analgesia [2]: 1

O=C(O)Cc1ccccc1Nc1c(Cl)cccc1Cl [Diclofenac, diclofenac, reference compound]
Relative Activity Antiinflammation [1]: 1
Relative Activity Gastric Lesion (gastric lesion; [3]): 1
Relative Activity Analgesia [2]: 1

CN(CCSC(=O)Cc1ccccc1Nc1c(Cl)cccc1Cl)CC(C)(C)SN=O.Cl [Example 31, 2-{2-[(2,6-Dichlorophenyl)amino]phenyl}-1-(2-{methyl[2-methyl-2-(nitrosothio)propyl]amino}ethylthio)ethan-1-one hydrochloride]
Relative Activity Antiinflammation [1]: 1
Relative Activity Gastric Lesion (gastric lesion; [4]): 0.02 (100 μmole/Kg)
Relative Activity Analgesia [2]: 1

CN1CCC(CCOC(=O)Cc2ccccc2Nc2c(Cl)cccc2Cl)(SN=O)CC1 (as salt: citrate) [Example 13, 2-[1-Methyl-4-(nitrosothio)-4-piperidyl]ethyl 2-{2-[(2,6-dichlorophenyl)amino]phenyl}acetate citrate]
melting point: 130 °C

CN1CCC(CN(C)CCCOC(=O)Cc2ccccc2Nc2c(Cl)cccc2Cl)(SN=O)CC1 [Example 12, 3-(Methyl{[1-methyl-4-(nitrosothio)(4-piperidyl)]methyl}amino)propyl 2-{2-[(2,6-dichlorophenyl)amino]pheny}acetate]
Relative Activity Gastric Lesion (gastric lesion; [3]): 0.06

COc1ccc2c(c1)c(CC(=O)OCCC1(SN=O)CCN(C)CC1)c(C)n2C(=O)c1ccc(Cl)cc1.O=C(O)CC(O)(CC(=O)O)C(=O)O [Example 17, 2-[1-Methyl-4-(nitrosothio)-4-piperidyl]ethyl 2{1-[(4-chlorophenyl)carbonyl]-5-methoxy-2-methylindol-3-yl}acetate citrate]
Relative Activity Gastric Lesion (gastric lesion; [4]): <0.07 (100 μmole/Kg)
Relative Activity Analgesia [2]: 1

COc1ccc2cc([C@H](C)C(=O)OC[C@@H]3NC(=O)[C@@H](C(C)(C)SN=O)NC3=O)ccc2c1 [Example 47, {(2S,5S)-5-[1-Methyl-1-(nitrosothio)ethyl]-3,6-dioxopiperazin-2-yl}methyl (2S)-2-(6-methoxy(2-naphthyl))propanoate]
melting point: > 180 °C (dec.)

CN(CCOC(=O)Cc1ccccc1Nc1c(Cl)cccc1Cl)CC1(SN=O)CCCCC1.Cl [Example 2, 2-(Methyl{[(nitrosothio)cyclohexyl]methyl}amino)ethyl 2-{2-[(2,6-dichlorophenyl)amino]phenyl}acetate hydrochloride]
Relative Activity Antiinflammation [1]: 1.2
Relative Activity Gastric Lesion (gastric lesion; [3]): 0.02
Relative Activity Analgesia [2]: 1

COc1ccc2cc([C@H](C)C(=O)OCCCN3C(=O)OC[C@H]3C(C)(C)SN=O)ccc2c1 [Example 44, 3-{(4S)-4-[1-Methyl-1-(nitrosothio)ethyl]-2-oxo-1,3-oxazolidin-3-yl}propyl (2S)-2-(6-methoxy(2-naphthyl))propanoate]
melting point: 116 to 117 °C

Cl.O=NSC1(CCOC(=O)Cc2ccccc2Nc2c(Cl)cccc2Cl)CCNCC1 [Example 6, 2-[4-(Nitrosothio)-4-piperdyl]ethyl 2-{2-[(2,6-dichlorophenyl)amino]phenyl}acetate hydrochloride]
Relative Activity Gastric Lesion (gastric lesion; [3]): 0.02

COc1ccc2cc([C@H](C)C(=O)OCCC3(SN=O)CCN(C)CC3)ccc2c1.O=C(O)CC(O)(CC(=O)O)C(=O)O [Example 15, 2-[1-Methyl-4-(nitrosothio)-4-piperidyl]ethyl (2S) 2-(6-methoxy(2-naphthyl)) propanoate citrate]
Relative Activity Antiinflammation [1]: 1
Relative Activity Gastric Lesion (gastric lesion; [4]): 0.1 (100 μmole/Kg)
Relative Activity Analgesia [2]: 1

COc1ccc2cc([C@H](C)C(=O)OCCN(C)CC3(SN=O)CCN(C)CC3)ccc2c1.Cl [Example 22, 2-(Methyl{[1-methyl-4-(nitrosothio)(4-piperidyl)]methyl}amino)ethyl (2S)-2-(6-methoxy(2-naphthyl))propanoate hydrochloride]
Relative Activity Antiinflammation [1]: 1
Relative Activity Gastric Lesion (gastric lesion; [4]): 0.1 (100 μmole/Kg)
Relative Activity Analgesia [2]: 1

CN1CCC(CCOC(=O)Cc2ccccc2Nc2c(Cl)cccc2Cl)(SN=O)CC1 [Example 13, 2-[1-Methyl-4-(nitrosothio)-4-piperidyl]ethyl 2-{2-[(2,6-dichlorophenyl)amino]phenyl}acetate citrate]
Relative Activity Antiinflammation [1]: 1
Relative Activity Gastric Lesion (gastric lesion; [4]): 0.1 (100 μmole/Kg)

CC(C)(CN1CCN(CCOC(=O)Cc2ccccc2Nc2c(Cl)cccc2Cl)CC1)SN=O.O=C(O)CC(O)(CC(=O)O)C(=O)O [Example 8, 2-{4-[2-Methyl-2-(nitrosothio)propyl]piperazinyl}ethyl 2-{2-[(2,6-dichlorophenyl)amino]phenyl}acetate citrate]
Relative Activity Antiinflammation [1]: 1.4
Relative Activity Gastric Lesion (gastric lesion; [3]): 0.04
Relative Activity Analgesia [2]: 1.2

CC1(SN=O)CCN(CCOC(=O)Cc2ccccc2Nc2c(Cl)cccc2Cl)CC1.Cl [Example 1, 2-[4-Methyl-4-(nitrosothio)piperidyl]ethyl 2-{2-[(2,6-dichlorophenyl)amino]phenyl}acetate hydrochloride]
Relative Activity Antiinflammation [1]: 1.2
Relative Activity Gastric Lesion (gastric lesion; [3]): 0.1
Relative Activity Analgesia [2]: 1.5
